This is an account of results in patent publication US20240109917A1 (ACTELION PHARMACEUTICALS LTD, priority 2020, published 2024).

Experiment [1] deals with Tb-labeled inactive PDGFRβ (Homo sapiens (Human), UniProt P09619). The experiment can be described thus: PDGFRβ LanthaScreen Assay. Format: binding. The conditions noted are these: read-out: PDGFR Lantha IC50. (In general: TR-FRET usually uses a lanthanide donor and a delayed reading to cut background.)
Another experiment deals with PDGFRβ (Rattus norvegicus (Rat), UniProt Q05030). Description: PDGFRβ Cellular Assay (PDGFRb P-Y751 HTRF in A10 cells stimulated with PDGF-BB). Format: cell-based. Put shortly: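 Phospho-Y751 PDGFRβ was measured by HTRF in lysates of A10 rat cells. Cells received compound for 3 hours before PDGF-BB stimulation (100 ng/mL working stock).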
For a further experiment, the target named is VEGFR2, unphosphorylated (Homo sapiens (Human), UniProt P35968). Description: VEGFR ADP GLO Assay. Format: biochemical.

pIC50: −log10 of the molar value. Where two headings read alike, the source gives them in different places.

The pIC50 is the negative decadic logarithm of the IC50, by convention in mol/L.

PDGFRβ, sequence (Q05030 32-1097): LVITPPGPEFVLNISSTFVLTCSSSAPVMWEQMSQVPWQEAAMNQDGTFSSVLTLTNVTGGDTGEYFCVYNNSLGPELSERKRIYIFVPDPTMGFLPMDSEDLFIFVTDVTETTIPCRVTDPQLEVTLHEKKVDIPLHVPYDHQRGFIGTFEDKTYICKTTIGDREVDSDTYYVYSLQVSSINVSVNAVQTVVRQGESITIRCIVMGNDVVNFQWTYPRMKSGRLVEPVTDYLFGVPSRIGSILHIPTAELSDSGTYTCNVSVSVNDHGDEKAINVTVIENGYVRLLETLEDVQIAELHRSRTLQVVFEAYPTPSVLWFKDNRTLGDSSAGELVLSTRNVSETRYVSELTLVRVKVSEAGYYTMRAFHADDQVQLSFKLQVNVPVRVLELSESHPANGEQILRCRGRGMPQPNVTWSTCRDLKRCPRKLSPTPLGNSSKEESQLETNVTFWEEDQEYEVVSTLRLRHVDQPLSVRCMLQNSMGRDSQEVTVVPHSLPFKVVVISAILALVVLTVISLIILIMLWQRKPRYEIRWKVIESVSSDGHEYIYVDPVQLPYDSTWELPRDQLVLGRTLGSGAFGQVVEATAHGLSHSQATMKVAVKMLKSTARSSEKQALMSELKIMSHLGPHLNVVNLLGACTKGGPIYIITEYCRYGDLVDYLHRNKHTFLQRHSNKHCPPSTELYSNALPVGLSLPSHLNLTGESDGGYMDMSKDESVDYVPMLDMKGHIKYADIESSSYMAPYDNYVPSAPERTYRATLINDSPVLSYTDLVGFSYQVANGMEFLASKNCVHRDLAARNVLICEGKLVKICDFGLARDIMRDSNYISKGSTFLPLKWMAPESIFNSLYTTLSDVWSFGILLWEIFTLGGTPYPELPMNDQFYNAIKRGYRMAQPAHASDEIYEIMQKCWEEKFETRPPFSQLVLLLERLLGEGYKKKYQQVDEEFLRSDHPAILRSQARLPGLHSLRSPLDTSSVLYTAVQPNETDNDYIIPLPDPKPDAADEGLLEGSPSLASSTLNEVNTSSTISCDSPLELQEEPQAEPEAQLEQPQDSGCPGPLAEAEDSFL
Tb-labeled inactive PDGFRβ, sequence (P09619 33-1106): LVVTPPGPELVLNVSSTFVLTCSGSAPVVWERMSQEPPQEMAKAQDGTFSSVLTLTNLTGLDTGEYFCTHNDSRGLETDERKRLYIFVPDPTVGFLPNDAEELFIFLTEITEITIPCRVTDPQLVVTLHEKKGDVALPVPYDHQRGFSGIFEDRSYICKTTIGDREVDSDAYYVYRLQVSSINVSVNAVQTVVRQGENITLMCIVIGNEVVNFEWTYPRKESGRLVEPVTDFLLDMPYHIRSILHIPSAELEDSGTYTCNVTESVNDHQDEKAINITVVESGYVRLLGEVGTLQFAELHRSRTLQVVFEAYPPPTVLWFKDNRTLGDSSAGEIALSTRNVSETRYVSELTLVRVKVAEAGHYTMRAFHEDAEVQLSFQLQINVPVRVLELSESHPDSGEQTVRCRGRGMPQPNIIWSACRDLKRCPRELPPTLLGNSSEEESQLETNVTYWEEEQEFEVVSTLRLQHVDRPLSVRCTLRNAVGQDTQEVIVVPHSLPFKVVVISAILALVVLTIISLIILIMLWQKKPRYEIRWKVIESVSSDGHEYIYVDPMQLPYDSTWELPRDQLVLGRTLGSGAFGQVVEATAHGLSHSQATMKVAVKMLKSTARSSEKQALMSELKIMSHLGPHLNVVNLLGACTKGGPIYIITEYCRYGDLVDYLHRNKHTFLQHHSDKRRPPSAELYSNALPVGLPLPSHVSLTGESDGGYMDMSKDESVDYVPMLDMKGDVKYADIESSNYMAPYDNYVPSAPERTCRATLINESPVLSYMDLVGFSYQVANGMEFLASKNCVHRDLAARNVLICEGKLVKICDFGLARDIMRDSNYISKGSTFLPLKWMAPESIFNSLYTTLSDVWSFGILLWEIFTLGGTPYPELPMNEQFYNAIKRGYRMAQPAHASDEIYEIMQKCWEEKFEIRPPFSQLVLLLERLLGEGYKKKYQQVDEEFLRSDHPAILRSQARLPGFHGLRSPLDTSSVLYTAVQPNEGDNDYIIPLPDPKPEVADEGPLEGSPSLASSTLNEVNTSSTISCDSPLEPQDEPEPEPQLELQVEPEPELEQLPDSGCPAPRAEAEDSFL
VEGFR2, unphosphorylated, sequence (P35968 20-1356): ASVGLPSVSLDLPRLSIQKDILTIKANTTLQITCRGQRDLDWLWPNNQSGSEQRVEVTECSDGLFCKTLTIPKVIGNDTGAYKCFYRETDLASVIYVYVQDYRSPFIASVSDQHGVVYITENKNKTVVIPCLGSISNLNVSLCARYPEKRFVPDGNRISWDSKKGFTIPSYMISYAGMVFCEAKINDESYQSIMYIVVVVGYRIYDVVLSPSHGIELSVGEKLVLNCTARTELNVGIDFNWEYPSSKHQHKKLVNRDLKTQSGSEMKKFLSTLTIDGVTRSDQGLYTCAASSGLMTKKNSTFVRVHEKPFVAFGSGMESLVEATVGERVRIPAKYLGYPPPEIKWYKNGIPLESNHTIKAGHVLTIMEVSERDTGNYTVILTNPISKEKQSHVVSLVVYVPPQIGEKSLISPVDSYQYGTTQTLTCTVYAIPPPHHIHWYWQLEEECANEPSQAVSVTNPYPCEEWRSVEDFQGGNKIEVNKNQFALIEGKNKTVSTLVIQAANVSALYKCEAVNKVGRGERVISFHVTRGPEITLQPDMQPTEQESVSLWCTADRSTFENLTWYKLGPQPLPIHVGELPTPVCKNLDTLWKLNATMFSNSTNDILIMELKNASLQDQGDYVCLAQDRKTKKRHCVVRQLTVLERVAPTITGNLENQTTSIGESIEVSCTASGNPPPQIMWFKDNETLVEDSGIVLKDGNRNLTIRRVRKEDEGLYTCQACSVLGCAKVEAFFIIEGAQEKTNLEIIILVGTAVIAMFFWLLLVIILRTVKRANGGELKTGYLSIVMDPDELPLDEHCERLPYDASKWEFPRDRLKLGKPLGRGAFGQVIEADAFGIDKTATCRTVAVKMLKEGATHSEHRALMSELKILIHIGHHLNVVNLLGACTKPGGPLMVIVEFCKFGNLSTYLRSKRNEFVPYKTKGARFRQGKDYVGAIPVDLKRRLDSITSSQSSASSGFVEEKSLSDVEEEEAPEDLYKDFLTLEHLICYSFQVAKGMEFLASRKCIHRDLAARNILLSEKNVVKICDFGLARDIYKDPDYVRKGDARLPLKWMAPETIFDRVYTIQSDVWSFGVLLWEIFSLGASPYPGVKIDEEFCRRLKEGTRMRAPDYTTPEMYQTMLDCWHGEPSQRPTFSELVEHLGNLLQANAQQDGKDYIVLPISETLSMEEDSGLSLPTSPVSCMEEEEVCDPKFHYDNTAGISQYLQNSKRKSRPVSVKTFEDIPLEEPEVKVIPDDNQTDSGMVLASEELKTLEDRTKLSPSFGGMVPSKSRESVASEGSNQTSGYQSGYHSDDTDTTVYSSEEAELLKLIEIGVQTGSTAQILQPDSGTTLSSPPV

As to `Cc1ncc(NC(=O)CN2CC(C)(C)C2)cc1NC(=O)c1cnn2cc(-c3cnn(C(F)(F)F)c3)sc12` [Example 269, N-(5-(2-(3,3-dimethylazetidin-1-yl)acetamido)-2-methylpyridin-3-yl)-2-(1-(trifluoromethyl)-1H-pyrazol-4-yl)pyrazolo[5,1-b]thiazole-7-carboxamide], the pIC50 in experiment [1] was 7.15; on PDGFRβ (read-out: PDGFR Cellular IC50), 7.76; against VEGFR2, unphosphorylated, less than 5.12.

Consider `Cc1ncc(NC(=O)CN2CC(C)(C)C2)cc1NC(=O)c1cnn2cc(-c3cnn(CC4CC4)c3)sc12` [Example 270, 2-(1-(cyclopropylmethyl)-1H-pyrazol-4-yl)-N-(5-(2-(3,3-dimethylazetidin-1-yl)acetamido)-2-methylpyridin-3-yl)pyrazolo[5,1-b]thiazole-7-carboxamide], for which the pIC50 was 8.27 in experiment [1]; 8.32 on PDGFRβ (read-out: PDGFR Cellular IC50); less than 5.12 against VEGFR2, unphosphorylated.

As for `Cc1ncc(NC(=O)CN2CC(C)(C)C2)cc1NC(=O)c1cnn2cc(-c3cn[nH]c3)sc12` [Example 271, N-(5-(2-(3,3-dimethylazetidin-1-yl)acetamido)-2-methylpyridin-3-yl)-2-(1H-pyrazol-4-yl)pyrazolo[5,1-b]thiazole-7-carboxamide], the pIC50 in experiment [1] is 8.55; at PDGFRβ (read-out: PDGFR Cellular IC50) it was 7.99; against VEGFR2, unphosphorylated, 5.23.

For `Cc1ncc(NC(=O)CN2CC(C)(C)C2)cc1NC(=O)c1cnn2cc(-c3ccc(C4(O)COC4)cc3)sc12` [Example 272, N-(5-(2-(3,3-dimethylazetidin-1-yl)acetamido)-2-methylpyridin-3-yl)-2-(4-(3-hydroxyoxetan-3-yl)phenyl)pyrazolo[5,1-b]thiazole-7-carboxamide], the pIC50 was 8.85 in experiment [1]; 8.25 on PDGFRβ (read-out: PDGFR Cellular IC50); less than 5.12 against VEGFR2, unphosphorylated.

For the compound `CC(=O)Nc1cc(-c2cn3ncc(C(=O)Nc4cc(NC(=O)CN5CC(C)(C)C5)cnc4C)c3s2)ccn1` [Example 273, 2-(2-acetamidopyridin-4-yl)-N-(5-(2-(3,3-dimethylazetidin-1-yl)acetamido)-2-methylpyridin-3-yl)pyrazolo[5,1-b]thiazole-7-carboxamide], the negative logarithm of the IC50 (pIC50) in experiment [1] was 8.44; at PDGFRβ (read-out: PDGFR Cellular IC50), 7.86; at VEGFR2, unphosphorylated it was less than 5.12.

Regarding `CNC(=O)c1cc(-c2cn3ncc(C(=O)Nc4cc(NC(=O)CN5CC(C)(C)C5)cnc4C)c3s2)ccn1` [Example 274, N-(5-(2-(3,3-dimethylazetidin-1-yl)acetamido)-2-methylpyridin-3-yl)-2-(2-(methylcarbamoyl)pyridin-4-yl)pyrazolo[5,1-b]thiazole-7-carboxamide], the pIC50 in experiment [1] was 7.67; on PDGFRβ (read-out: PDGFR Cellular IC50), 7.29; against VEGFR2, unphosphorylated it was less than 5.12.

Take `Cc1ncc(NC(=O)CN2CC(C)(C)C2)cc1NC(=O)c1cnn2cc(-c3ccn(S(C)(=O)=O)c3)sc12` [Example 275, N-(5-(2-(3,3-dimethylazetidin-1-yl)acetamido)-2-methylpyridin-3-yl)-2-(1-(methylsulfonyl)-1H-pyrrol-3-yl)pyrazolo[5,1-b]thiazole-7-carboxamide]: the negative logarithm of the IC50 (pIC50) in experiment [1] was 8.60; against PDGFRβ (PDGFR Cellular IC50) it was 8.12; against VEGFR2, unphosphorylated, less than 5.12.

On to `CC(=O)Nc1cncc(-c2cn3ncc(C(=O)Nc4cc(NC(=O)CN5CC(C)(C)C5)cnc4C)c3s2)c1` [Example 277, 2-(5-acetamidopyridin-3-yl)-N-(5-(2-(3,3-dimethylazetidin-1-yl)acetamido)-2-methylpyridin-3-yl)pyrazolo[5,1-b]thiazole-7-carboxamide], for which the pIC50 in experiment [1] was 8.24; at PDGFRβ (read-out: PDGFR Cellular IC50), 6.85; against VEGFR2, unphosphorylated, less than 5.60.

On to `Cc1ncc(NC(=O)CN2CC(C)(C)C2)cc1NC(=O)c1cnn2cc(-c3ccc(CO)s3)sc12` [Example 278, N-(5-(2-(3,3-dimethylazetidin-1-yl)acetamido)-2-methylpyridin-3-yl)-2-(5-(hydroxymethyl)thiophen-2-yl)pyrazolo[5,1-b]thiazole-7-carboxamide], for which the pIC50 in experiment [1] was 8.85; on PDGFRβ (read-out: PDGFR Cellular IC50) it was 8.82; on VEGFR2, unphosphorylated, less than 5.12.

Consider `CNC(=O)Cn1cc(-c2cn3ncc(C(=O)Nc4cc(NC(=O)CN5CC(C)(C)C5)cnc4C)c3s2)cn1` [Example 279, N-(5-(2-(3,3-dimethylazetidin-1-yl)acetamido)-2-methylpyridin-3-yl)-2-(1-(2-(methylamino)-2-oxoethyl)-1H-pyrazol-4-yl)pyrazolo[5,1-b]thiazole-7-carboxamide], for which the pIC50 in experiment [1] is 8.07; on PDGFRβ (read-out: PDGFR Cellular IC50), 6.87; against VEGFR2, unphosphorylated, less than 5.12.

On to `Cc1ncc(NC(=O)CN2CC(C)(C)C2)cc1NC(=O)c1cnn2cc(-c3cnn(C4CCS(=O)(=O)CC4)c3)sc12` [Example 280, N-(5-(2-(3,3-dimethylazetidin-1-yl)acetamido)-2-methylpyridin-3-yl)-2-(1-(1,1-dioxidotetrahydro-2H-thiopyran-4-yl)-1H-pyrazol-4-yl)pyrazolo[5,1-b]thiazole-7-carboxamide], for which the negative-log IC50 (pIC50) is 8.37 in experiment [1]; 7.07 at PDGFRβ (read-out: PDGFR Cellular IC50); less than 5.12 against VEGFR2, unphosphorylated.

With `Cc1ncc(NC(=O)CN2CC(C)(C)C2)cc1NC(=O)c1cnn2cc(-c3cnn(CC(C)O)c3)sc12` (stereo not drawn) [Example 281, N-(5-(2-(3,3-dimethylazetidin-1-yl)acetamido)-2-methylpyridin-3-yl)-2-(1-(2-hydroxypropyl)-1H-pyrazol-4-yl)pyrazolo[5,1-b]thiazole-7-carboxamide], the pIC50 is 8.42 in experiment [1]; 7.96 on PDGFRβ (read-out: PDGFR Cellular IC50); less than 5.12 against VEGFR2, unphosphorylated.

`Cc1ncc(NC(=O)CN2CC(C)(C)C2)cc1NC(=O)c1cnn2cc(-c3ccsc3)sc12` [Example 282, N-(5-(2-(3,3-dimethylazetidin-1-yl)acetamido)-2-methylpyridin-3-yl)-2-(thiophen-3-yl)pyrazolo[5,1-b]thiazole-7-carboxamide]: the pIC50 in experiment [1] is 8.92; at PDGFRβ (read-out: PDGFR Cellular IC50), 9.05; against VEGFR2, unphosphorylated, 5.57.

With `Cc1ncc(NC(=O)CN2CC(C)(C)C2)cc1NC(=O)c1cnn2cc(-c3ccoc3)sc12` [Example 283, N-(5-(2-(3,3-dimethylazetidin-1-yl)acetamido)-2-methylpyridin-3-yl)-2-(furan-3-yl)pyrazolo[5,1-b]thiazole-7-carboxamide], the negative logarithm of the IC50 (pIC50) in experiment [1] is 8.66; at PDGFRβ (read-out: PDGFR Cellular IC50), 8.82; against VEGFR2, unphosphorylated it was less than 5.12.

As for `Cc1ncc(NC(=O)CN2CC(C)(C)C2)cc1NC(=O)c1cnn2cc(-c3ccnc(N4CCOCC4)c3)sc12` [Example 284, N-(5-(2-(3,3-dimethylazetidin-1-yl)acetamido)-2-methylpyridin-3-yl)-2-(2-morpholinopyridin-4-yl)pyrazolo[5,1-b]thiazole-7-carboxamide], the pIC50 was 8.59 in experiment [1]; 8.55 on PDGFRβ (read-out: PDGFR Cellular IC50); less than 5.12 on VEGFR2, unphosphorylated.

`Cc1ncc(NC(=O)CN2CC(C)(C)C2)cc1NC(=O)c1cnn2cc(-c3cc[nH]c3)sc12` [Example 285, N-(5-(2-(3,3-dimethylazetidin-1-yl)acetamido)-2-methylpyridin-3-yl)-2-(1H-pyrrol-3-yl)pyrazolo[5,1-b]thiazole-7-carboxamide]: the negative-log IC50 (pIC50) in experiment [1] was 8.89; on PDGFRβ (read-out: PDGFR Cellular IC50), 8.92; against VEGFR2, unphosphorylated it was less than 5.12.

`Cc1ncc(NC(=O)CN2CC(C)(C)C2)cc1NC(=O)c1cnn2cc(-c3cccc4c3cnn4C)sc12` [Example 286, N-(5-(2-(3,3-dimethylazetidin-1-yl)acetamido)-2-methylpyridin-3-yl)-2-(1-methyl-1H-indazol-4-yl)pyrazolo[5,1-b]thiazole-7-carboxamide]: the pIC50 is 9.00 in experiment [1]; 8.85 on PDGFRβ (read-out: PDGFR Cellular IC50); less than 5.60 on VEGFR2, unphosphorylated.

Take `Cc1ncc(NC(=O)CN2CC(C)(C)C2)cc1NC(=O)c1cnn2cc(-c3c[nH]c4ccccc34)sc12` [Example 287, N-(5-(2-(3,3-dimethylazetidin-1-yl)acetamido)-2-methylpyridin-3-yl)-2-(1H-indol-3-yl)pyrazolo[5,1-b]thiazole-7-carboxamide]: the pIC50 in experiment [1] was 9.10; at PDGFRβ (read-out: PDGFR Cellular IC50), 8.74; against VEGFR2, unphosphorylated it was 5.76.

Turning to `Cc1ncc(NC(=O)CN2CC(C)(C)C2)cc1NC(=O)c1cnn2cc(-c3cnc4[nH]ncc4c3)sc12` [Example 288, N-(5-(2-(3,3-dimethylazetidin-1-yl)acetamido)-2-methylpyridin-3-yl)-2-(1H-pyrazolo[3,4-b]pyridin-5-yl)pyrazolo[5,1-b]thiazole-7-carboxamide], the pIC50 in experiment [1] is 7.94; on PDGFRβ (read-out: PDGFR Cellular IC50), 7.87; at VEGFR2, unphosphorylated, less than 5.60.

As to `Cc1ncc(NC(=O)CN2CC(C)(C)C2)cc1NC(=O)c1cnn2cc(-c3cnn(-c4cccnc4)c3)sc12` [Example 289, N-(5-(2-(3,3-dimethylazetidin-1-yl)acetamido)-2-methylpyridin-3-yl)-2-(1-(pyridin-3-yl)-1H-pyrazol-4-yl)pyrazolo[5,1-b]thiazole-7-carboxamide], the negative-log IC50 (pIC50) in experiment [1] is 8.15; at PDGFRβ (read-out: PDGFR Cellular IC50), 8.36; at VEGFR2, unphosphorylated it was less than 5.12.

Regarding `Cc1ncc(NC(=O)CN2CC(C)(C)C2)cc1NC(=O)c1cnn2cc(-c3cnn(CCO)c3)sc12` [Example 290, N-(5-(2-(3,3-dimethylazetidin-1-yl)acetamido)-2-methylpyridin-3-yl)-2-(1-(2-hydroxyethyl)-1H-pyrazol-4-yl)pyrazolo[5,1-b]thiazole-7-carboxamide], the pIC50 in experiment [1] was 8.48; at PDGFRβ (read-out: PDGFR Cellular IC50), 7.71; against VEGFR2, unphosphorylated, less than 5.12.

As for `Cc1ncc(NC(=O)CN2CC(C)(C)C2)cc1NC(=O)c1cnn2cc(-c3ccc(CO)o3)sc12` [Example 292, N-(5-(2-(3,3-dimethylazetidin-1-yl)acetamido)-2-methylpyridin-3-yl)-2-(5-(hydroxymethyl)furan-2-yl)pyrazolo[5,1-b]thiazole-7-carboxamide], the pIC50 is 8.66 in experiment [1]; 8.38 at PDGFRβ (read-out: PDGFR Cellular IC50); less than 5.12 against VEGFR2, unphosphorylated.
